Measured values reported in patent US20200323212A1, “PEST CONTROL COMPOSITION AND USE OF SAME” (SUMITOMO CHEMICAL COMPANY, LIMITED, priority 2017, published 2020).

Tested on: ticks
Experiment: Vial contact test, tick mortality after 48 hours (Test Examples 11, 14, 15)
Type: in vivo
Experimental: The Colby's calculation equation is shown as Equation 1 below.
E=X+Y−X×Y/100 (Equation 1)
Zero point two (0.2) mL of the solution was dropped to a 20 mL volume of vial, and the inner wall of the vial was coated homogeneously with the chemicals, and air-dried. Thereafter, ten ticks were released in the vial, and the vials were sealed with a lid. After 48 hours, the number of died ticks were examined, and the mortality (%) was calculated by the following equation 2. The three repetitions of each application dose were conducted.
Mortality (%)=(Number of dead pests/Number of supplied pests)×100 (Equation 2)
Zero point two (0.2) mL of the solution was dropped to a 20 mL volume of a vial, and the inner wall of the vial was coated homogeneously with the chemicals, and air-dried. Thereafter, ten ticks were released in the vial, and the vials were sealed with a lid. After 48 hours, the number of died ticks were examined, and the mortality (%) was calculated by the following equation 5. The three repetitions of each application dose were conducted.
Mortality (%)=(Number of dead pests/Number of supplied pests)×100 (Equation 5)
Zero point two (0.2) mL of the solution was dropped to a 20 mL volume of a vial, and the inner wall of the vial was coated homogeneously with the chemicals, and air-dried. Thereafter, ten ticks were released in the vial, and the vials were sealed with a lid. After 48 hours, the number of died ticks were examined, and the mortality (%) was calculated by the following equation 6. The three repetitions of each application dose were conducted.
Mortality (%)=(Number of dead pests/Number of supplied pests)×100 (Equation 6)

Q: With CCN(CC)C(=O)c1cccc(C)c1 [N,N-diethyl-m-toluamide] as the compound, how does the “Mortality (Measured value)” value (N,N-diethyl-m-toluamide alone 10 mg/m^2) read?
A: The value was 40%.

Q: And the “Mortality (Measured value)” value (N,N-diethyl-m-toluamide alone 20 mg/m^2)?
A: The value was 50%.

Q: For CCC(C)OC(=O)N1CCCCC1CCO (stereo not drawn) [sec-butyl=2-(2-hydroxyethyl)piperidine-1-carboxylate], which “Mortality (Measured value)” value (sec-butyl=2-(2-hydroxyethyl)piperidine-1-carboxylate alone 10 mg/m^2) is on record?
A: Its value is 70%.
